Measurements taken from patent US20030229105A1, “Treatment of autoimmune disorders” (Cyclacel Limited, priority 2002, published 2003).

Columns and labels:
[1] = test system: HIV-1 NSI (THA/92/001, subtype E envelope); experiment: p24 gag ELISA of PHA-activated PBMC infected with NSI field isolate; format: cell-based; conditions: 10 μM drug postinfection
Method: We chose HIV-1 stably integrated cells, lymphocytic ACH2 and 8E5 cell lines, as well as monocytic U1 cells (and their uninfected parental counterparts CEM and U937, respectively) for our initial studies, since viral transcription could be activated and scored through signals, such as Tat, TNF-α or phorbol myristate acetate (PMA) and PHA. We first activated viruses in these cells with TNF-α (10 ng/ml) at 37° C. for 2 h, followed by washing, and then we incubated cells with 10 μM concentrations of each drug. […]. A somewhat similar pattern of drug inhibition was also seen when ACH2, 8E5, and U1 cells were treated with either Tat or a combination of PMA and PHA to induce full-length viral transcripts. […]. […] We next examined the effect of all three drugs on primary HIV-1 field isolates of SI and NSI strains. Activated PBMC were infected with two independent HIV-1 viral strains of SI (UG/92/029, subtype A envelope) and NSI (THA/92/001, subtype E envelope). […].
Five days later, the supernatants were collected, and the amount of newly synthesized HIV-1 was measured by p24 antigen assay. […]
Media from HIV-1 infected cell lines were centrifuged to pellet the cells, and supernatants were collected and diluted to 1:100 to 1:1,000 in RPMI 1640 prior to ELISA. […] The p24 gag antigen level was analyzed by using the HIVAG-1 Monoclonal Antibody Kit (Abbott Laboratories, Diagnostics Division). […]

CEM (uninfected) cells = experiment: Cell cycle analysis (PI staining, FACS) of uninfected CEM cells; format: cell-based; conditions: TNF-α, 10 μM, 48 h; for effect on cell cycle progression: uninfected CEM
From the text: We next examined the cellular effects of these drugs on the cell cycle progression of HIV-1-infected and uninfected cells. […]. […] Therefore, the selective killing mechanism by this particular drug might partially be responsible for the decrease in HIV-1 titers observed in the infected cells. We also reasoned that Purvalanol A may be toxic to uninfected induced cells by increasing the G2/M population and the increase of apoptosis, as is evident in FIG. 2A. […] U937 is the uninfected monocytic parental cell line, and U1 is the U937 cell line infected with two copies of integrated HIV-1, only one of which is wild type for viral progeny formation. […]. This is in contrast to many apoptosis-inducing agents, such as TNF-α DNA-damaging agents (gamma irradiation, mitomycin C [6]), or sodium butyrate, in which cases the apoptosis of HIV-1-infected cell accompanies massive production and the release of infectious HIV-1 virions.
Forty-eight hours later, cells were collected, fixed with 70% ethanol, PI stained, and analyzed by FACS. (B and C) Experiments similar to the experiment in panel A were performed in ACH2 (B) or U1 (C) cells (both latently HIV-1 infected) plus TNF-α, followed by ethanol fixation, PI staining, and analysis by FACS. Apoptosis (Apop) represents a mixture of cells from either G1, S, or G2/M with characteristics of cell death.
For fluorescence-activated cell sorting (FACS) analysis, cells were stained with a cocktail of propidium iodide (PI) buffer (PBS with Ca^2+ and Mg^2+, RNase A [10 μg/ml], NP-40 [0.1%], and PI [50 μg/ml]) followed by cell-sorting analysis. FACS data acquired were analyzed by ModFit LT software (Verity Software House, Inc.).

Compound | block of viral replication (p24 gag), NSI strain [1] | apoptosis (CEM (uninfected) cells; CEM cells) [%] | effect on cell cycle progression (CEM (uninfected) cells)
Roscovitine | effectively blocked viral replication | 4.9 | did not change the cell cycle progression significantly
CC(C)[C@H](CO)Nc1nc(Nc2cccc(Cl)c2)c2ncn(C(C)C)c2n1 [Purvalanol A] | effectively blocked viral replication | – | showed an increase in the G2/M population and induced apoptosis
